Results on one compound are retold here after patent US20230219951A1, “PYRIDINE-PYRIMIDINE DERIVATIVE, PREPARATION METHOD THEREFOR AND PHARMACEUTICAL USE THEREOF” (Jiangsu Hengrui Pharmaceuticals Co., Ltd., priority 2020, published 2023).

In general, IC50 refers to the concentration that gives 50% inhibition. The term half-life denotes how long it takes for the measured level to halve.

The target in one data set is T1, hERG potassium channel (Homo sapiens, UniProt Q12809).
T1 construct: host or cells: CHO
Kind of data set: Manual patch-clamp of hERG potassium currents in CHO cells stably expressing hERG channel. Format: cell-based. The conditions noted are these: read-out: IC50(μM), blocking effect on the hERG potassium ion channel. On the procedure:
This example is intended to test the blocking effect of the compounds of the present disclosure on hERG potassium currents in a stable cell strain transfected with an hERG potassium channel by a manual patch-clamp assay.
The cells used in this experiment were from a CHO cell line (provided by Sophion Bioscience, Denmark) transfected with hERG cDNA and stably expressing hERG channel at cell passage number of P5. Cells were cultured in a medium containing the following components (all from Invitrogen): Ham's F12 medium, 10% (v/v) inactivated fetal bovine serum, […] hygromycin B, and […] geneticin. CHO hERG cells were grown in a culture dish containing the above culture medium and cultured in an incubator at 37° C. with 5% CO2. […]
In this experiment, a manual patch-clamp system (HEKA EPC-10 signal amplifier and digital conversion system, purchased from HEKA Electronics, Germany) was used for whole cell current recording. […] After the hERG potassium currents recorded in the above step were stable under the continuous extracellular fluid perfusion in the recording chamber, the drug to be tested could be added for perfusion until the inhibition effect of the drug on the hERG current reached a stable state. […]
The blocking effect of the compound of the present disclosure on hERG potassium currents was determined by the above test.

A short description of data set [1]: Pharmacokinetic evaluation in dogs. Format: in vivo. The settings on record: both sexes, dog, plasma, po, beagle dogs, intragastric administration, 2 mg/kg. On the procedure:
The drug concentration in the plasma of the test animals (dogs) at different time points after intragastric administration (i.g.) of compound 18-p1 was determined by using an LC/MS/MS method. The pharmacokinetic behavior in dogs of the compound of the present disclosure was studied and its pharmacokinetic profile was evaluated.
Four beagle dogs, half male and half female, fasted overnight, supplied by animal reserve bank (999M-004). All animals were beagle dogs qualified for physical examination and healthy without abnormalities.
An amount of compound 18-p1 was weighed and dissolved in 5% by volume of DMSO, 20% by volume of PG, and 20% by volume of PEG400, and then prepared into a 0.4 mg/mL clear solution with 55% normal saline.
The administration was performed at a dose of 2.0 mg/kg and a volume of 5.0 mL/kg.
The compound 18-p1 was administered intragastrically to dogs, and 1.0 mL of blood was collected from jugular vein or forelimb vein before administration and 0.25 h, 0.5 h, 1.0 h, 2.0 h, 4.0 h, 6.0 h, 8.0 h, 12.0 h and 24.0 h after administration. The blood was placed in an EDTA-K2 anticoagulation tube and centrifuged at 10,000 rpm for 5 min (4° C.), and plasma was separated out within 1 h and then stored at −80° C. for testing. The process from blood sampling to centrifugation was performed under an ice bath. Food intake was resumed 3 h after administration.
The content of the test compounds at different concentrations in plasma of dogs after administration was determined: 25 μL of plasma of dogs at each time point after administration was taken, and 200 μL of acetonitrile (containing 50 μL of internal standard solution camptothecin, 100 ng/mL) was added; the mixture was vortexed for 5 min, and centrifuged for 10 min (4000 r/min). 0.3 μL of supernatant was taken from the plasma sample for LC/MS/MS analysis.

T1 sequence (Q12809 whole entry): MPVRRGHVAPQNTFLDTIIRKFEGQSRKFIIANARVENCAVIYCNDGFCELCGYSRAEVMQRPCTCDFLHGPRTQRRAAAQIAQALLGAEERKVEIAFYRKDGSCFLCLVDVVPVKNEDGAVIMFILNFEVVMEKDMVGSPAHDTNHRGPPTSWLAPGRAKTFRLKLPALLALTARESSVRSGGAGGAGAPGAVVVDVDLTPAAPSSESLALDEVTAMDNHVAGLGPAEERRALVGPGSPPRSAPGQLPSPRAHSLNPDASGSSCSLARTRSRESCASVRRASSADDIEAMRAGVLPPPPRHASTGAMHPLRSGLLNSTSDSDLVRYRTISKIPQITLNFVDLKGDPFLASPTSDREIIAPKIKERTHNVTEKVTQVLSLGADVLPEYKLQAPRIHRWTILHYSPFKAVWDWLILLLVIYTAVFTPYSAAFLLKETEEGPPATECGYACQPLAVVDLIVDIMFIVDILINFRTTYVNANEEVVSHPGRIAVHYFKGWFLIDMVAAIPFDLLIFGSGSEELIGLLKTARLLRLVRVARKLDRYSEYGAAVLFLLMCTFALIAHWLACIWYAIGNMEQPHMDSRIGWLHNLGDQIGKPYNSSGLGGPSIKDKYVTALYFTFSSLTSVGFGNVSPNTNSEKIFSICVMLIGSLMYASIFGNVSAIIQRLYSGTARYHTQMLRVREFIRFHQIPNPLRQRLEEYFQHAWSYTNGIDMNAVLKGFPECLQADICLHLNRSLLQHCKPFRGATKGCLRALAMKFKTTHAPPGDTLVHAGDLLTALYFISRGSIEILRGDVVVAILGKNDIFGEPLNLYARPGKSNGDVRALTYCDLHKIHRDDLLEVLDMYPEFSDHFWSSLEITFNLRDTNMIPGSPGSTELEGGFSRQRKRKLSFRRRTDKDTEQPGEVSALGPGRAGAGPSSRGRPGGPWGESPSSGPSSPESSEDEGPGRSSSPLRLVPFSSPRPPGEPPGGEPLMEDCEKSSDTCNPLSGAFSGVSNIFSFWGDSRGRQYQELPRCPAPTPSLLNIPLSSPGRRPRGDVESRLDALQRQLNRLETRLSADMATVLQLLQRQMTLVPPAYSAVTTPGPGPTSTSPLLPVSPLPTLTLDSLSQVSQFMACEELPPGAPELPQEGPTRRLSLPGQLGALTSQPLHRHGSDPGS

For `Cc1nc(N[C@H](C)c2cccc(C(F)F)c2F)c2cc([C@]3(O)CC[C@@H](O)CC3)c(=O)[nH]c2n1` [Example 18-p1, 4-(((R)-1-(3-(difluoromethyl)-2-fluorophenyl)ethyl)amino)-6-((1s,4S)-1,4-dihydroxycyclohexyl)-2-methylpyrido[2,3-d]pyrimidin-7(8H)-one], on hERG potassium channel, the IC50 was over 30 µM. The Vd/F in data set [1] (read-out: Apparent distribution volume Vz/F) is 2.63 L/kg. For the same compound, the AUC(0-t) in data set [1] (read-out: Area under curve AUC0-t) was determined as 4600 ng·h/mL. In addition, the CL/F in data set [1] (read-out: Clearance CLz/F) was 7.64 mL/min/kg. Moreover, in data set [1] (read-out: Half-life T½ (converted)), the half-life was 3.91 h. Also, the Cmax in data set [1] (read-out: Plasma concentration Cmax) worked out at 710 ng/mL.
